# Data reported in patent publication US7432286B1, “Pharmaceutically active sulfonyl hydrazide derivatives” (Laboratories Serono SA, priority 1999, dated 2008).
# How the values were obtained:
# GST-JNK3 = GST-JNK3 (Homo sapiens, UniProt P53779); experiment: JNK3 in vitro assay (SPA, GST-c-Jun phosphorylation); type: biochemical; conditions: recombinant pre-activated GST-JNK3, 2 μM ATP
# Description: (§1) JNK 2 and 3 in vitro assays: JNK3 and/or 2 assays are performed in 96 well MTT plates, by incubation of 0.5 μg of recombinant, pre-activated GST-JNK3 or GST-JNK2 with 1 μg of recombinant, biotinylated GST-c-Jun and 2 μM ^33γ-ATP (2 nCi/μl), in the presence or absence of sulfonamide inhibitors if formula I and in a reaction volume of 50 μl containing 50 mM Tris-HCl, pH 8.0; 10 mM MgCl2; 1 mM Dithiothreitol, and 100 μM NaVO4. The incubation is performed for 120 min. at R.T and stopped upon addition of 200 μl of a solution containing 250 μg of Streptavidine-coated SPA beads (Amersham, Inc.)*, 5 mM EDTA, 0.1% Triton X-100 and 50 μM ATP, in phosphate saline buffer. After incubation for 60 minutes at RT, beads are sedimented by centrifugation at 1500×g for 5 minutes, resuspended in 200 μl of PBS containing 5 mM EDTA, 0.1% Triton X-100 and 50 μM ATP and the radioactivity measured in a scintillation β counter, following sedimentation of the beads as described above. By substituting GST-c Jun for biotinylated GST-1ATF2 or myelin basic protein, this assay can be used to measure inhibition of preactivated p38 and ERK MAP Kinases, respectively.
# (§2) The values indicated in respect of JNK2 and 3, p38 and ERK2 refer to the IC50 (μM), i.e. the amount necessary to achieve 50% inhibition of said target (e.g. JNK2). From the above table it could be derived that said test compounds according to formula I do have a significant effect both on JNK2 and 3, but virtually no effect onto p38 and ERK2, thus delivering a quite selective inhibitory effect.
# GST-JNK2 = GST-JNK2 (Homo sapiens, UniProt P45984); experiment: JNK2 in vitro assay (SPA, GST-c-Jun phosphorylation); type: biochemical; conditions: recombinant pre-activated GST-JNK2, 2 μM ATP
# Sequence of GST-JNK2 (P45984 whole entry): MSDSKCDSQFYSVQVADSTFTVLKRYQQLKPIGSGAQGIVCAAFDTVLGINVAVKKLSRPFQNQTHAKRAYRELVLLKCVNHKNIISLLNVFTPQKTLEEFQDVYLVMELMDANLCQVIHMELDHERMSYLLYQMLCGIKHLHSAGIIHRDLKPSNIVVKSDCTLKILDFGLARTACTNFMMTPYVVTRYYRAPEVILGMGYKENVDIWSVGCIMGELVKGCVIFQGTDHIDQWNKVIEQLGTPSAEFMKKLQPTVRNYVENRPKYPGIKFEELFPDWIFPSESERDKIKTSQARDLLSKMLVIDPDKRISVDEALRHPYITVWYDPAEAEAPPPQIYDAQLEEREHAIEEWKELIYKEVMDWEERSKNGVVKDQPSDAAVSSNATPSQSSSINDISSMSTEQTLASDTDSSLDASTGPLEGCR
# Description: as §1, §2
# p38 = p38 (Homo sapiens, UniProt Q16539); experiment: p38 in vitro kinase assay (SPA, GST-ATF2 substrate); type: biochemical; conditions: preactivated p38
# Sequence of p38 (Q16539 whole entry): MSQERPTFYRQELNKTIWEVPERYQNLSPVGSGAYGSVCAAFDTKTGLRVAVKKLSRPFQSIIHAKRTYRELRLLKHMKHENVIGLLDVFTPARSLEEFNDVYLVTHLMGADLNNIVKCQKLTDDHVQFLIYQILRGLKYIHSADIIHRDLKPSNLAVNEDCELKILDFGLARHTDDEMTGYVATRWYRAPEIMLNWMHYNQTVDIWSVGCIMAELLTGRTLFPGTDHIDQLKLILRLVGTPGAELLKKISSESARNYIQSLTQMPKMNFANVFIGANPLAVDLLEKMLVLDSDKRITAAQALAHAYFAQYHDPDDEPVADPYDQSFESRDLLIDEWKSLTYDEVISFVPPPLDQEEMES
# Description: as §1, §2
# ERK2 = ERK2 (Homo sapiens, UniProt P28482); experiment: ERK2 in vitro kinase assay (SPA, myelin basic protein substrate); type: biochemical; conditions: preactivated ERK
# Sequence of ERK2 (P28482 whole entry, species assumed): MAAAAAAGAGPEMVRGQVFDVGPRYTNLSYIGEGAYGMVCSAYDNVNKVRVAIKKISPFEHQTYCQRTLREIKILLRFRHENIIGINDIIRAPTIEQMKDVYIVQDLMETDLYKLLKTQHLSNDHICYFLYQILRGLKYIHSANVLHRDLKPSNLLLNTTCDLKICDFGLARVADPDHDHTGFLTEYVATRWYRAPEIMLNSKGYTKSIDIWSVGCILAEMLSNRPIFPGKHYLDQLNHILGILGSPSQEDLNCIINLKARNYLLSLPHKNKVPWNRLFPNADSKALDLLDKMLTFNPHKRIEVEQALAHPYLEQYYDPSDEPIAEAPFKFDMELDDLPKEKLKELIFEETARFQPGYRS
# Description: as §1, §2
# [1] = tested on: IL-2 release by Jurkat cells; experiment: IL-2 release assay (PMA+Ionomycine stimulated, ELISA); type: cell-based; conditions: Homo sapiens, 24 hours, read-out: % Inhibition of IL2 Production @ 3 uM
# Description: Jurkat cells, a human T cell leukemia cell line (American Type Culture Collection # TIB 152) were cultured in RPMI 1640 medium (Gibco, BRL) supplemented with 10% of heatactivated FCS, Glutamine and Penstrep. The cell suspension in the medium is diluted to give 2.10^6 cells/mL. The cells were plated (2.10^5 cells/well) on a 96-well plate containing different concentration of test compound (final concentration of compounds, 10, 3, 1, 0.3, 0.1 μM). This mixture is incubated 30 minutes at 37° C. in a humidified CO2 atmosphere. Cells were then treated with 10 ul PMA+Ionomycine (0.1 μM and 1 μM final concentration) in all wells except negative control. In wells without compounds, 10 μl of RPMI 2% DMSO (=0.1% final) is added. Cells are incubated 24 hours at 37° C. and then the supernatant harvested (freeze at −20° C. if not used the same day) prior to performing IL-2 ELISA test on the supernatant.
# IL-2 release into the medium by PMA+Iono-stimulated Jurkat cells, in presence or absence of test compounds is assayed by ELISA. Following the procedure described below
# Transfer 100 μl capture antibody diluted in PBS at 5 μg/mL into a 96 well ELISA plate and incubate overnight at room temperature.
# Aspirate each well and wash 3 times with Wash buffer. After the last wash, damp the plate.
# 1. Saturate with 200 μl PBS-10% FCS. Incubate 1 hour at room temperature.
# 2. Repeat the wash step 2.
# • 1. Add 100 μl of sample or standard (2000, 1000, 500, 250, 125, 62.5, 31.25 pg/mL) and incubate 2 hours at room temperature. • 2. Wash 3 times. • 3. Add 100 μl of biotinylated anti-human IL-2 at 12.5 ng/mL. Incubate 2 hours at room temperature. • 4. Wash 3 times. • 5. Add 100 μl streptavidin-HRP (Zymed #43-4323) at 1:10,000. Incubate 30 minutes at room temperature. • 6. Wash 3 times • 7. Add 100 μl substrate solution (citric acid/Na2HPO4 (1:1)+H2O2 1:2000+OPD). Incubate 20-30 minutes at room temperature. • 8. Add 50 μl of stop solution to each well. • 9. Determine optical density using a microtiter plate reader set to 450 nm with correction at 570 nm.
# Hlr c-Jun HeLa cells = experiment: C-Jun reporter assay (MEKK1 induced, Dual-Luciferase); type: cell-based; conditions: Homo sapiens
# Description: Hlr c-Jun HeLa cells are cultured in DMEM High Glc supplemented with 10% FCS (Sigma), 2 mM Glutamine (Gibco), P/S, Hygromycin b 100 μg/mL and G418 250 μg/mL
# The cell suspension are diluted with medium to give about 3.5×10^6 cells/mL and […] of cell suspension are put onto 210 cm culture dishes containing 9 mL of culture medium. The plates are incubated at 37° C. in a humidified atmosphere of 5% CO2 in air
# • Control: 0.2 μg pTK Renilla, […] pBluescript KS, 500 μl OPTIMEM (GIBCO), 18 μl Fugene 6 • Induced: 0.1 μg pMEKK1, 0.2 μg pTK Renilla, 5.7 μg pBluescript KS, 500 μl OPTIMEM (GIBCO), 18 μl Fugene 630′ RT
# The transfection mixture is added to the plated cells. The plates are incubated over night at 37° C. in a humidified atmosphere of 5% CO2 in air
# A 96 wells plate containing 100 μl of culture medium per well is prepared Negative control (vehicle): 2 μl of DMSO is added to the 100 μl (in triplicate). Compound: 2 μl of Hit compound stock dilution are added to the 100 μl (in triplicate). The transfected cells are trypsinised and ressuspend in 12 mL of culture medium. 100 μl of the dilution are added to each of the 96 wells plate.
# The plate is incubated over night at 37° C. in a humidified atmosphere of 5% CO2 in air
# The medium is removed from the plate and the cells washed two times with 100 μl PBS Completely remove the rinse solution before applying PLB reagent. Dispense into each culture well […] of 1X PLB. Place the culture plates on a rocking platform or orbital shaker with gentle
# rocking/shaking to ensure complete and even coverage of the cell monolayer with 1X PLB. Rock the culture plates at room temperature for 15 minutes. Transfer 20 μl of the lysate into a white opaque 96 wells plate. Read in a luminometer. • Inject 50 μl of Luciferase Assay Reagent II wait 5″, read 10″ • Inject 50 μl of Stop & Glo® Reagent wait 5″, read 10″
# Check RLU Luciferase/RLU Renilla*1000
# Sequence of GST-JNK3 (P53779 whole entry): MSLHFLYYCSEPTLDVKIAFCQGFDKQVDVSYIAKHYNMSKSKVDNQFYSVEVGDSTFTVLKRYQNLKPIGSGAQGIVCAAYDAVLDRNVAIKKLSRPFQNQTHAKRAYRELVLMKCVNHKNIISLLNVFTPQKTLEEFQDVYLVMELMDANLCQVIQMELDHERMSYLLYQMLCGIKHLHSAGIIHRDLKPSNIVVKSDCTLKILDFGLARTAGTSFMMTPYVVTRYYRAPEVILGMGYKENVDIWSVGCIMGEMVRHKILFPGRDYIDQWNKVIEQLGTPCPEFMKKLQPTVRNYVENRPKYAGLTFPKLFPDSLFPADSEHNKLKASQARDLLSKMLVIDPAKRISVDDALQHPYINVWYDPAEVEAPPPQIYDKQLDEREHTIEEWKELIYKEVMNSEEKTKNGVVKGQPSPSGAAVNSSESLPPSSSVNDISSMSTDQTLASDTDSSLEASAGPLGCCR
Compound,IC50 (GST-JNK3) [nM],IC50 (GST-JNK2) [nM],IC50 (p38) [nM],IC50 (ERK2) [nM],melting point [°C],inhibition at 3 µM [1] [%],inhibition at 10 µM (Hlr c-Jun HeLa cells) [%]
"O=C(NCc1ccc(S(=O)(=O)NNC(=O)c2csc(COc3ccccc3Cl)n2)s1)c1ccc(Cl)cc1 [Example 13, 4-chloro-N-[(5-{[2-({2-[(2-chlorophenoxy)methyl]-1,3-thiazol-4-y1}carbonyl)hydrazino]sulfonyl}thien-2-yl)methyl]benzamide]",310,970,> 30000,> 30000,–,> 30,> 20
"O=C(CCCNc1ncc(C(F)(F)F)cc1Cl)NNS(=O)(=O)c1ccc(CNC(=O)c2ccc[nH]c2=O)s1 [Example 75, N-[(5-{[2-(4-{[3-chloro-5-(trifluoromethyl)pyridin-2-yl]amino}butanoyl)hydrazino]sulfonyl}thien-2-yl)methyl]-2-oxo-1,2-dihydropyridine-3-carboxamide]",410,560,> 30000,> 30000,–,> 30,> 20
"O=C(CCCNc1ncc(C(F)(F)F)cc1Cl)NNS(=O)(=O)c1ccc(CNC(=O)c2ccccc2O)s1 [Example 20, N-[(5-{[2-(4-{[3-chloro-5-(trifluoromethyl)pyridin-2-yl]amino}butanoyl)hydrazino]sulfonyl}thien-2-yl)methyl]-2-hydroxybenzamide]",–,–,–,–,174.5 to 175.5,–,–

# Second part, led by results:
IC50 (GST-JNK3) [nM],IC50 (GST-JNK2) [nM],IC50 (p38) [nM],IC50 (ERK2) [nM],melting point [°C],Compound,inhibition at 3 µM [1] [%],inhibition at 10 µM (Hlr c-Jun HeLa cells) [%]
210,370,> 30000,> 30000,–,"O=C(NCc1ccc(S(=O)(=O)NNC(=O)c2csc(-c3ccc(C4SCCS4)cc3)n2)s1)c1ccc(Cl)cc1 [Example 1, 4-chloro-N-[(5-{[2-({2-[4-(1,3-dithiolan-2-yl)phenyl]-1,3-thiazol-4-yl}carbonyl)-hydrazino]sulfonyl}thien-2-yl)methyl]benzamide]",> 30,> 20
250,1020,> 30000,> 30000,–,"O=C(CCCNc1ncc(C(F)(F)F)cc1Cl)NNS(=O)(=O)c1ccc(CNC(=O)c2ccc(Cl)cc2)cc1 [Example 80, 4-chloro-N-(4-{[2-(4-{[3-chloro-5-(trifluoromethyl)pyridin-2-yl]amino}butanoyl)hydrazino]sulfonyl}benzyl)benzamide]",> 30,> 20
